Measured values as given in patent publication US4156724A, “N-acylamino-alpha-arylacetamido cephalosporins and antibacterial compositions and methods containing them” (Sumitomo Chemical Company, Limited, priority 1974, dated 1979).
In brackets after ≈: the same amount, converted by molar mass.

Columns and labels:
Format in all cases: cell-based
[1] = test system: Enterobacter aerogeneus No. 75; assay: Minimum Inhibitory Concentration, Enterobacter aerogeneus No. 75; conditions: Enterobacter aerogeneus No. 75; read-out: Minimum Inhibitory Concentration
Experimental: (§1) anti-microbial activity tests were carried out on the compounds obtained in the Examples.

[2] = test system: Escherichia coli NIHJ; assay: Minimum Inhibitory Concentration, Escherichia coli NIHJ; conditions: Escherichia coli NIHJ; read-out: Minimum Inhibitory Concentration
Experimental: as §1

[3] = test system: Proteus vulgaris HX 19; assay: Minimum Inhibitory Concentration, Proteus vulgaris HX 19; conditions: HX19; Proteus vulgaris HX 19; read-out: Minimum Inhibitory Concentration
Experimental: as §1

[4] = test system: Klebsiella pneumoniae 602; assay: Minimum Inhibitory Concentration, Klebsiella pneumoniae 602; conditions: Klebsiella pneumoniae, 602, Klebsiella pneumoniae 602; read-out: Minimum Inhibitory Concentration
Experimental: as §1

[5] = test system: Staphylococcus aureus 209 P; assay: Minimum Inhibitory Concentration, Staphylococcus aureus 209 P; conditions: Staphylococcus aureus 209 P; read-out: Minimum Inhibitory Concentration
Experimental: as §1

[6] = test system: Staphylococcus aureus FS 289; assay: Minimum Inhibitory Concentration, Staphylococcus aureus FS 289; conditions: FS289; Staphylococcus aureus FS 289, strain resistant to penicillin; read-out: Minimum Inhibitory Concentration
Experimental: as §1
*Staphylococcus aureus FS 289: strain resistant to penicillin

[7] = test system: Pseudomonas aeruginosa 104; assay: Minimum Inhibitory Concentration, Pseudomonas aeruginosa 104; conditions: Pseudomonas aeruginosa 104; read-out: Minimum Inhibitory Concentration
Experimental: as §1

[8] = test system: Serratia No. 72; assay: Minimum Inhibitory Concentration, Serratia No. 72
Experimental: as §1

Row | MIC [1] [µg/mL] | MIC [2] [µg/mL] | MIC [3] [µg/mL] | MIC [4] [µg/mL] | MIC [5] [µg/mL] | MIC [6] [µg/mL] | MIC [7] [µg/mL] | MIC [8] [µg/mL] | Compound
1 | 12.5 (≈ 20 µM) | 6.25 (≈ 9.99 µM) | 0.1 (≈ 0.16 µM) | 6.25 (≈ 9.99 µM) | 0.39 (≈ 0.623 µM) | 6.25 (≈ 9.99 µM) | 6.25 (≈ 9.99 µM) | 50 (≈ 79.9 µM) | NC(=O)Nc1ccc([C@@H](NC(=O)c2cnccc2O)C(=O)N[C@@H]2C(=O)N3C(C(=O)O)=C(CSc4cnn[nH]4)CS[C@H]23)cc1 [Example 14]
2 | 6.25 (≈ 9.5 µM) | 12.5 (≈ 19 µM) | 0.1 (≈ 0.152 µM) | 3.13 (≈ 4.76 µM) | 0.39 (≈ 0.593 µM) | 6.25 (≈ 9.5 µM) | 6.25 (≈ 9.5 µM) | 50 (≈ 76 µM) | Cc1nnc(SCC2=C(C(=O)O)N3C(=O)[C@@H](NC(=O)[C@H](NC(=O)c4ccnnc4O)c4cccc(NC(N)=O)c4)[C@H]3SC2)s1 [Example 15]
3 | 6.25 (≈ 9.5 µM) | 6.25 (≈ 9.5 µM) | 0.2 (≈ 0.304 µM) | 3.13 (≈ 4.76 µM) | 0.39 (≈ 0.593 µM) | 6.25 (≈ 9.5 µM) | 6.25 (≈ 9.5 µM) | 50 (≈ 76 µM) | Cc1nnc(SCC2=C(C(=O)O)N3C(=O)[C@@H](NC(=O)[C@H](NC(=O)c4ccnnc4O)c4ccc(NC(N)=O)cc4)[C@H]3SC2)s1 [Example 16]
4 | 12.5 (≈ 19.5 µM) | 6.25 (≈ 9.74 µM) | 0.1 (≈ 0.156 µM) | 3.13 (≈ 4.88 µM) | 0.39 (≈ 0.608 µM) | 6.25 (≈ 9.74 µM) | 6.25 (≈ 9.74 µM) | 50 (≈ 77.9 µM) | Cn1nnnc1SCC1=C(C(=O)O)N2C(=O)[C@@H](NC(=O)[C@H](NC(=O)c3ccnnc3O)c3ccc(NC(N)=O)cc3)[C@H]2SC1 [Example 17]
5 | 12.5 (≈ 19.9 µM) | 6.25 (≈ 9.97 µM) | 0.2 (≈ 0.319 µM) | 6.25 (≈ 9.97 µM) | 0.39 (≈ 0.622 µM) | 6.25 (≈ 9.97 µM) | 6.25 (≈ 9.97 µM) | 50 (≈ 79.8 µM) | NC(=O)Nc1ccc([C@@H](NC(=O)c2ccnnc2O)C(=O)N[C@@H]2C(=O)N3C(C(=O)O)=C(CSc4cnn[nH]4)CS[C@H]23)cc1 [Example 18]
6 | 25 (≈ 38.8 µM) | 12.5 (≈ 19.4 µM) | 0.2 (≈ 0.311 µM) | 6.25 (≈ 9.71 µM) | 0.39 (≈ 0.606 µM) | 6.25 (≈ 9.71 µM) | 12.5 (≈ 19.4 µM) | 50 (≈ 77.7 µM) | NC(=O)Nc1ccc([C@@H](NC(=O)c2cncnc2O)C(=O)N[C@@H]2C(=O)N3C(C(=O)O)=C(CSc4nncs4)CS[C@H]23)cc1 [Example 19]
7 | 3.13 (≈ 4.42 µM) | 3.13 (≈ 4.42 µM) | 0.1 (≈ 0.141 µM) | 1.56 (≈ 2.2 µM) | 0.78 (≈ 1.1 µM) | 3.13 (≈ 4.42 µM) | 3.13 (≈ 4.42 µM) | 12.5 (≈ 17.7 µM) | Cc1nnc(SCC2=C(C(=O)O)N3C(=O)[C@@H](NC(=O)[C@H](NC(=O)c4cnc5cccnc5c4O)c4ccc(NC(N)=O)cc4)[C@H]3SC2)s1 [Example 20]
8 | 3.13 (≈ 4.51 µM) | 3.13 (≈ 4.51 µM) | 0.2 (≈ 0.288 µM) | 1.56 (≈ 2.25 µM) | 0.78 (≈ 1.12 µM) | 3.13 (≈ 4.51 µM) | 3.13 (≈ 4.51 µM) | 12.5 (≈ 18 µM) | NC(=O)Nc1ccc([C@@H](NC(=O)c2cnc3cccnc3c2O)C(=O)N[C@@H]2C(=O)N3C(C(=O)O)=C(CSc4nncs4)CS[C@H]23)cc1 [Example 21]
9 | 3.13 (≈ 4.53 µM) | 1.56 (≈ 2.26 µM) | 0.1 (≈ 0.145 µM) | 1.56 (≈ 2.26 µM) | 0.78 (≈ 1.13 µM) | 6.25 (≈ 9.04 µM) | 3.13 (≈ 4.53 µM) | 12.5 (≈ 18.1 µM) | Cn1nnnc1SCC1=C(C(=O)O)N2C(=O)[C@@H](NC(=O)[C@H](NC(=O)c3cnc4cccnc4c3O)c3ccc(NC(N)=O)cc3)[C@H]2SC1 [Example 22]
10 | 3.13 (≈ 4.63 µM) | 3.13 (≈ 4.63 µM) | 0.2 (≈ 0.296 µM) | 1.56 (≈ 2.31 µM) | 1.56 (≈ 2.31 µM) | 6.25 (≈ 9.24 µM) | 3.13 (≈ 4.63 µM) | 12.5 (≈ 18.5 µM) | NC(=O)Nc1ccc([C@@H](NC(=O)c2cnc3cccnc3c2O)C(=O)N[C@@H]2C(=O)N3C(C(=O)O)=C(CSc4cnn[nH]4)CS[C@H]23)cc1 [Example 23]
11 | 3.13 (≈ 4.31 µM) | 3.13 (≈ 4.31 µM) | 0.39 (≈ 0.537 µM) | 1.56 (≈ 2.15 µM) | 1.56 (≈ 2.15 µM) | 6.25 (≈ 8.61 µM) | 3.13 (≈ 4.31 µM) | 12.5 (≈ 17.2 µM) | NC(=O)Nc1ccc([C@@H](NC(=O)c2cnc3cccnc3c2O)C(=O)N[C@@H]2C(=O)N3C(C(=O)O)=C(CSc4nnc(S)s4)CS[C@H]23)cc1 [Example 24]
12 | 6.25 (≈ 8.66 µM) | 3.13 (≈ 4.34 µM) | 0.39 (≈ 0.54 µM) | 3.13 (≈ 4.34 µM) | 1.56 (≈ 2.16 µM) | 6.25 (≈ 8.66 µM) | 3.13 (≈ 4.34 µM) | 12.5 (≈ 17.3 µM) | Cc1ccc2c(O)c(C(=O)N[C@@H](C(=O)N[C@@H]3C(=O)N4C(C(=O)O)=C(CSc5nnc(C)s5)CS[C@H]34)c3ccc(NC(N)=O)cc3)cnc2n1 [Example 25]
